Data: patent US12509424B2, “Compound and composition as PDGF receptor kinase inhibitor” (NIPPON SHINYAKU CO., LTD., priority 2019, dated 2025)
pIC50: −log10 of the molar value. Read-outs that look alike come from different tables or passages of the source.

How the values were obtained:
[1] = system: pulmonary arterial smooth muscle cells; assay: Suppression of proliferation of pulmonary arterial smooth muscle cells (PDGF-BB stimulation, BrdU); format: cell-based; settings: PASMC, read-out: Human normal PASMC proliferation suppression (PDGF stimulation_IC50)
Outline: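 Test compound (final 3 to 10,000 nM) was added together with BrdU and PDGF-BB (final 10 ng/mL) to healthy human pulmonary artery smooth muscle cells held a day in 0.1% FBS. Proliferation was read after 1 day as anti-BrdU-detected BrdU incorporation.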

PDGFR-β = PDGFR-β (Homo sapiens (Human), UniProt P09619); assay: PDGFR-β tyrosine kinase inhibitory action (HTRF KinEASE-TK); format: biochemical; settings: PDGFR-β enzyme 1 ng/μL, 30° C. for 30 minutes; read-out: PDGF-β IC50
Outline: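 Recombinant PDGFR-β at 1 ng/μL final with TK substrate-3-biotin in a substrate solution containing 0.6 μM ATP; buffer 50 mM HEPES pH 7.0, 5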

[2] = target: TEL-KIT fusion gene transfected cells (Ba/F3); assay: Suppression of proliferation of TEL-KIT fusion gene transfected Ba/F3 cells; settings: read-out: KIT/BaF3 proliferation inhibition (IC50); TEL-KIT expressing Ba/F3 cells, 72 hours, final concentration 0.1 to 10,000 nM;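 note: viable cells quantified via formazan from tetrazolium reduction, inhibition scaled with 0.1% DMSO control as 0% and medium-only blank as 100%, IC50 from two-parameter logistic fit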
[3] = target: TEL-PDGFRβ fusion gene transfected cells (Ba/F3); assay: Suppression of proliferation of TEL-PDGFRβ fusion gene transfected Ba/F3 cells; format: cell-based, human; settings: TEL-PDGFRβ expressing Ba/F3 cells, 72 hours, final concentration 0.1 to 10,000 nM; read-out: PDGFR β/BaF3 proliferation inhibition (IC50)
From the text: 2. Preparation of Test Substance
4. Analysis of Measurement Results

[4] = 24 h, healthy human derived pulmonary arterial smooth muscle cells, human PDGF-BB 10 ng/mL stimulation, BrdU uptake after 1 day, test substance final concentration 3 to 10,000 nM
[5] = human PDGF-BB 10 ng/mL, BrdU uptake, final concentration 3 to 10,000 nM

TEL-KIT fusion gene transfected cells (Ba/F3), sequence (P10721 26-976 limits assumed, change not shown): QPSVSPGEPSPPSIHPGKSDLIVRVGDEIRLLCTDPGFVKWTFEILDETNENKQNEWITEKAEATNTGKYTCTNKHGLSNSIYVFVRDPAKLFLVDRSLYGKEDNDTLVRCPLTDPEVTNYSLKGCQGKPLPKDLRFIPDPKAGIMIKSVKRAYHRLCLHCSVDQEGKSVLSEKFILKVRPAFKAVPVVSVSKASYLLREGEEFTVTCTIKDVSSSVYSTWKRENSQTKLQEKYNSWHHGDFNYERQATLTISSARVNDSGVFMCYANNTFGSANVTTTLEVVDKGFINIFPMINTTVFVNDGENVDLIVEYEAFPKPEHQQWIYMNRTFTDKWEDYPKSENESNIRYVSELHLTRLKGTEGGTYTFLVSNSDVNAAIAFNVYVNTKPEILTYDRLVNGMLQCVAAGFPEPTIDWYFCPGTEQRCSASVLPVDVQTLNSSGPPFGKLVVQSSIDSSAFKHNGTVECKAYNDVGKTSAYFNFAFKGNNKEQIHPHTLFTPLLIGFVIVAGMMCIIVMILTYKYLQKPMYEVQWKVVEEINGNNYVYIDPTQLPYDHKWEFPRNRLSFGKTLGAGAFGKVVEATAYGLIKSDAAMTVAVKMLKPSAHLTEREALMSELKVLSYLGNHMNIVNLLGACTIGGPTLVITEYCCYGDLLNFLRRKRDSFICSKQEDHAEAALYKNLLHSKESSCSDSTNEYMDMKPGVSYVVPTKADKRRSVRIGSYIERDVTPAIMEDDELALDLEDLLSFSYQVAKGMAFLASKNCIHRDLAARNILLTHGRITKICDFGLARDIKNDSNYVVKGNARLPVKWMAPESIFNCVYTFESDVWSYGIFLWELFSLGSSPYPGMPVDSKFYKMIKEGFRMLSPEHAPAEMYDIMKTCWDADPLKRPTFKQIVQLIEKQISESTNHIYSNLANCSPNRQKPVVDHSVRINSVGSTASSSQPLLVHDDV
TEL-PDGFRβ fusion gene transfected cells (Ba/F3), sequence (P09619 33-1106 limits assumed, change not shown): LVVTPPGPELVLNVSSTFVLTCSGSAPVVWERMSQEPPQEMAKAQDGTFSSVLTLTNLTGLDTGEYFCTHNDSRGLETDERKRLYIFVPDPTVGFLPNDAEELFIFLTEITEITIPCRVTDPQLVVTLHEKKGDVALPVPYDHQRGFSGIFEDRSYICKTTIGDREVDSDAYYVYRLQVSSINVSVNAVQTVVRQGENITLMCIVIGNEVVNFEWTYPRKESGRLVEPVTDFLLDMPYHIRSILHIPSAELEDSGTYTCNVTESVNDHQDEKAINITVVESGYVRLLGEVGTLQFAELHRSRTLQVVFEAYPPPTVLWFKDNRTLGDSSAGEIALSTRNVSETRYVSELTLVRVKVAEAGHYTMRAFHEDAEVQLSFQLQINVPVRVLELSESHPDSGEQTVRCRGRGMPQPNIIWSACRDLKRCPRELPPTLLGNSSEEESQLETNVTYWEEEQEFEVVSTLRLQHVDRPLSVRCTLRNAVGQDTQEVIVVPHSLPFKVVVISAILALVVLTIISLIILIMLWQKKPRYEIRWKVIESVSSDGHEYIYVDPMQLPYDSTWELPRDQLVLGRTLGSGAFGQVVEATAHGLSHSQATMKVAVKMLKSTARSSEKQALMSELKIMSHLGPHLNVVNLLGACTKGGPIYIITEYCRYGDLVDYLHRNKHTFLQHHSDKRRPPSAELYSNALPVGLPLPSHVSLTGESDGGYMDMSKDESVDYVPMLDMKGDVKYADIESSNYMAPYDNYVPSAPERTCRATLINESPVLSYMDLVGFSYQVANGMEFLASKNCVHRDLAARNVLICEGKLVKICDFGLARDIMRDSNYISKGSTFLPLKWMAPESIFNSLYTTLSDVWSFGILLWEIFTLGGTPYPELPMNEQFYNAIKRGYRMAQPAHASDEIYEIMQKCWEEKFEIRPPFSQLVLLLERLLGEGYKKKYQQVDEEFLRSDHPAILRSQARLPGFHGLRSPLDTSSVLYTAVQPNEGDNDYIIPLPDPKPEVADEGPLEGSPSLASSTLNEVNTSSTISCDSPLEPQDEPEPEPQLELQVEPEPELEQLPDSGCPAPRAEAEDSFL
PDGFR-β, sequence (P09619 33-1106): as the sequence (P09619 33-1106 limits assumed, change not shown) above

Row | Structure (SMILES) | pIC50 [1, 4] | pIC50 (PDGFR-β) | pIC50 [2] | pIC50 [3] | pIC50 [1, 5]
1 | Cc1ccc(C(=O)N[C@H]2CCCC[C@@H]2O)cc1NC(=O)c1cncc(-c2c(F)cccc2F)c1 [Example 37, 5-(2,6-difluorophenyl)-N-(5-{[(1S,2S)-2-hydroxycyclohexyl]carbamoyl}-2-methylphenyl)pyridine-3-carboxamide] | 7.34 | 7.48 | 6.33 | 8.29 | –
2 | CCCc1ncc(C(=O)Nc2cc(C(=O)N[C@H]3CCCC[C@@H]3O)ccc2C)s1 [Example 10, N-(5-{[(1S,2S)-2-hydroxycyclohexyl]carbamoyl}-2-methylphenyl)-2-propyl-1,3-thiazole-5-carboxamide] | – | 6.66 | 6.18 | 7.60 | 6.85
3 | Cc1ccc(C(=O)N[C@H]2CCCC[C@@H]2O)cc1NCc1cncc(-c2ccc(C(C)(C)N)cc2)c1 [Example 98, 3-[({5-[4-(2-aminopropan-2-yl)phenyl]pyridin-3-yl}methyl)amino]-N-[(1S,2S)-2-hydroxycyclohexyl]-4-methylbenzamide] | 6.80 | 6.85 | < 5.00 | 7.40 | –
4 | Cc1ccc(C(=O)N[C@H]2CCCC[C@@H]2O)cc1NCc1cnc(N)nc1 [Example 113, 3-{[(2-aminopyrimidin-5-yl)methyl]amino}-N-[(1S,2S)-2-hydroxycyclohexyl]-4-methylbenzamide] | 7.29 | 7.08 | 6.15 | 9.70 | –
5 | Cc1ccc(C(=O)N[C@H]2CCCC[C@@H]2O)cc1NC(=O)c1cncc(-c2cccc(C(F)(F)F)c2)c1 [Example 22, N-(5-{[(1S,2S)-2-hydroxycyclohexyl]carbamoyl}-2-methylphenyl)-5-[3-(trifluoromethyl)phenyl]pyridine-3-carboxamide] | – | 7.85 | 6.05 | 7.23 | 7.00
6 | Cc1ccc(C(=O)N[C@H]2CCCC[C@@H]2O)cc1NC(=O)c1cncc(-c2cccc(OC(F)(F)F)c2)c1 [Example 34, N-(5-{[(1S,2S)-2-hydroxycyclohexyl]carbamoyl}-2-methylphenyl)-5-[3-(trifluoromethoxy)phenyl]pyridine-3-carboxamide] | 6.89 | 7.72 | 6.27 | 8.10 | –
7 | Cc1ccc(C(=O)N[C@H]2CCCC[C@@H]2O)cc1NC(=O)c1cnc(NC2CC(F)(F)C2)s1 [Example 25, 2-[(3,3-difluorocyclobutyl)amino]-N-(5-{[(1S,2S)-2-hydroxycyclohexyl]carbamoyl}-2-methylphenyl)-1,3-thiazole-5-carboxamide] | – | 7.41 | < 5.00 | 7.30 | 6.64
8 | Cc1c(F)cc(C(=O)N[C@H]2CCCC[C@@H]2O)cc1NC(=O)c1cnc(CC2CC2)s1 [Example 48, 2-(cyclopropylmethyl)-N-(3-fluoro-5-{[(1S,2S)-2-hydroxycyclohexyl]carbamoyl}-2-methylphenyl)-1,3-thiazole-5-carboxamide] | 6.51 | 6.92 | 6.19 | 7.80 | –
9 | Cc1ccc(C(=O)N[C@H]2CCCC[C@@H]2O)cc1C#Cc1cncc(-c2ccc(F)cc2)n1 [Example 71, 3-{[6-(4-fluorophenyl)pyrazin-2-yl]ethynyl}-N-[(1S,2S)-2-hydroxycyclohexyl]-4-methylbenzamide] | 7.37 | 7.38 | 6.24 | 8.22 | –
10 | Cc1ccc(C(=O)N[C@H]2CCCC[C@@H]2O)cc1NCc1cncc(-c2cc(F)cc(F)c2)c1 [Example 100, 3-({[5-(3,5-difluorophenyl)pyridin-3-yl]methyl}amino)-N-[(1S,2S)-2-hydroxycyclohexyl]-4-methylbenzamide] | 7.15 | 7.49 | 5.05 | 7.77 | –
11 | Cc1ccc(C(=O)N[C@H]2CCCC[C@@H]2O)cc1NC(=O)c1cnc(NCCC2CC2)s1 [Example 26, 2-[(2-cyclopropylethyl)amino]-N-(5-{[(1S,2S)-2-hydroxycyclohexyl]carbamoyl}-2-methylphenyl)-1,3-thiazole-5-carboxamide] | – | 8.34 | 6.34 | 8.03 | 7.60
12 | O=C(Nc1cc(CNc2cncc(-c3ncccn3)c2)ccc1F)N[C@@H]1CCCC[C@@H]1O [Example 160, N-[2-fluoro-5-({[5-(pyrimidin-2-yl)pyridin-3-yl]amino}methyl)phenyl]-N′-[(1R,2S)-2-hydroxycyclohexyl]urea] | 7.36 | 7.34 | 5.92 | 8.23 | –
13 | Cc1ccc(C(=O)N[C@H]2CCCC[C@@H]2O)cc1NCc1cncc(-c2cccs2)c1 [Example 102, N-[(1S,2S)-2-hydroxycyclohexyl]-4-methyl-3-({[5-(thiophen-2-yl)pyridin-3-yl]methyl}amino)benzamide] | 7.52 | 7.64 | 6.21 | 8.70 | –
14 | Cc1ccc(C(=O)N[C@H]2CCCC[C@@H]2O)cc1NC(=O)c1cncc(-c2cc(F)cc(F)c2)c1 [Example 32, 5-(3,5-difluorophenyl)-N-(5-{[(1S,2S)-2-hydroxycyclohexyl]carbamoyl}-2-methylphenyl)pyridine-3-carboxamide] | 6.72 | 7.33 | 6.04 | 7.77 | –
15 | Cc1ccc(C(=O)N[C@H]2CCCC[C@@H]2O)cc1NC(=O)c1cncc(-c2ccc(F)cc2)c1 [Example 19, 5-(4-fluorophenyl)-N-(5-{[(1S,2S)-2-hydroxycyclohexyl]carbamoyl}-2-methylphenyl)pyridine-3-carboxamide] | – | 7.89 | 6.00 | 7.52 | 7.09
16 | Cc1ccc(C(=O)N[C@H]2CCCC[C@@H]2O)cc1N[C@@H](C)c1cncc(-c2ccccn2)c1 [Example 89, 3-{[(1S)-1-([2,3′-bipyridin]-5′-yl)ethyl]amino}-N-[(1S,2S)-2-hydroxycyclohexyl]-4-methylbenzamide] | 6.72 | 7.11 | 6.21 | 7.70 | –
17 | Cc1ccc(C(=O)N[C@H]2CCCC[C@@H]2O)cc1NC(=O)c1cnc(NC(C)C)s1 [Example 27, N-(5-{[(1S,2S)-2-hydroxycyclohexyl]carbamoyl}-2-methylphenyl)-2-[(propan-2-yl)amino]-1,3-thiazole-5-carboxamide] | – | 8.08 | 6.00 | 8.06 | 7.15
18 | Cc1ccc(C(=O)N[C@H]2CCCC[C@@H]2O)cc1COc1cncc(-c2cccnc2)c1 [Example 168, 3-{[([3,3′-bipyridin]-5-yl)oxy]methyl}-N-[(1S,2S)-2-hydroxycyclohexyl]-4-methylbenzamide] | 6.96 | 6.46 | 5.39 | 7.74 | –
19 | Cc1ccc(C(=O)N[C@H]2CCCC[C@@H]2O)cc1C(C)Nc1cncc(-c2ccccc2)n1 (stereo partly drawn) [Example 164, N-[(1S,2S)-2-hydroxycyclohexyl]-4-methyl-3-{1-[(6-phenylpyrazin-2-yl)amino]ethyl}benzamide] | 6.96 | 6.96 | 5.85 | 6.74 | –
20 | Cc1ccc(C(=O)N[C@H]2CCCC[C@@H]2O)cc1N[C@@H](C)c1cncc(-c2ccncc2)c1 [Example 87, 3-{[(1S)-1-([3,4′-bipyridin]-5-yl)ethyl]amino}-N-[(1S,2S)-2-hydroxycyclohexyl]-4-methylbenzamide] | 6.46 | 6.60 | 5.00 | 7.57 | –
21 | Cc1ccc(C(=O)N[C@H]2CCCC[C@@H]2O)cc1NCc1cncc(-c2ccsc2)c1 [Example 103, N-[(1S,2S)-2-hydroxycyclohexyl]-4-methyl-3-({[5-(thiophen-3-yl)pyridin-3-yl]methyl}amino)benzamide] | 7.40 | 7.30 | 5.60 | 8.39 | –
22 | Cc1ccc(C(=O)N[C@H]2CCCC[C@@H]2O)cc1NC(=O)c1cncc(OCC2CC2)c1 [Example 24, 5-(cyclopropylmethoxy)-N-(5-{[(1S,2S)-2-hydroxycyclohexyl]carbamoyl}-2-methylphenyl)pyridine-3-carboxamide] | – | 7.19 | 5.92 | 7.96 | 6.96
23 | Cc1ccc(C(=O)N[C@H]2CCCC[C@@H]2O)cc1NC(=O)c1cnc(NC(C)(C)C)s1 [Example 38, 2-(tert-butylamino)-N-(5-{[(1S,2S)-2-hydroxycyclohexyl]carbamoyl}-2-methylphenyl)-1,3-thiazole-5-carboxamide] | 6.68 | 7.10 | 5.92 | 8.14 | –
24 | Cc1ccc(C(=O)N[C@H]2CCCC[C@@H]2O)cc1NC(=O)c1cncc(-c2cccc(F)c2)c1 [Example 20, 5-(3-fluorophenyl)-N-(5-{[(1S,2S)-2-hydroxycyclohexyl]carbamoyl}-2-methylphenyl)pyridine-3-carboxamide] | – | 7.89 | 6.05 | 7.62 | 7.11
